{
  "source": "patent US20240374753A1",
  "about": "“USE OF AN AGONIST OF FORMYL PEPTIDE RECEPTORS 1 AND 2 FOR TREATING OCULAR INFLAMMATORY DISEASES” (ALLGENESIS BIOTHERAPEUTICS INC., priority 2023, published 2024)",
  "key": {"Preclinical studies": {"test": "Preclinical studies", "assay_type": "in vivo"}, "[1]": {"test_system": "patients with dry eye disease", "test": "Safety and tolerability (TEAEs), Phase 1b study", "assay_type": "in vivo, human", "conditions": "BID for 3 months, both formulations"}, "[2]": {"test": "Stabilisation/solubility of AG-80308 with HPβCD", "assay_type": "physicochemical", "conditions": "storage or stress conditions"}, "[3]": {"test_system": "patients with dry eye disease", "test": "7-item VAS symptom assessment, Phase 1b study", "assay_type": "in vivo, human", "conditions": "overall study summary", "experimental": "(§1) A multicenter, double-masked, randomized, parallel-group Phase 1b study evaluating the safety, tolerability, and dose-response of AG-80308 ophthalmic solution administered twice daily for 3 months in 84 patients with dry eye disease was conducted. […] 2-Hydroxypropyl-beta-cyclodextrin (HPβCD) was used in formulations A and B. The efficacy measures included both signs (ocular surface staining, tear film breakup time, Schirmer's test, meibomian gland assessments) and symptoms (7-item visual analog scale (VAS) assessments: burning/stinging, itching, foreign body sensation, eye discomfort, eye dryness, photophobia, pain and ocular surface disease index).\n(§2) In this study, a single eye drop (approximately 30 μL) of AG-80308 was administered BID (approximately 12 hours apart) to the study eye every day until the Day 84 visit.\nThe VAS symptom assessment was performed at Visit 1 (Day −30 to Day −2), Visit 2 (Day 1), Visit 3 (Day 15), Visit 4 (Day 43), and Visit 5 (Day 84). Subjects were asked to rate each ocular symptom, unrelated to study drug instillation, by placing a vertical mark on the horizontal line to indicate the level of discomfort. Zero millimeters (mm) corresponds to “no discomfort” and 100 mm corresponds to “maximal discomfort. The symptoms evaluated were burning/stinging, itching, foreign body sensation, eye discomfort, eye dryness, photophobia, and pain. […]"}, "[4]": {"test_system": "patients with dry eye disease", "test": "Ocular surface disease index, Phase 1b study", "assay_type": "in vivo, human", "conditions": "overall study summary", "experimental": "as §1, §2"}, "[5]": {"test_system": "patients with dry eye disease", "test": "Corneal fluorescein staining (NEI Scale), Phase 1b study", "assay_type": "in vivo, human", "conditions": "for Corneal staining, unit improvement from baseline: p<0.05", "experimental": "as §1, §2\nCorneal fluorescein staining was assessed in each eye at Visit 1 (Day −30 to Day −2), Visit 2 (Day 1), Visit 4 (Day 43), and Visit 5 (Day 84) using the NEI Scale. The NEI Scale uses a standardized grading system of 0 to 3 using whole number units for each of the […] areas on each cornea. Grade 0 was specified when no staining is present."}},
  "data": [
    {"compound": "CC(C)C[C@H](NC(=O)Nc1ccc(Br)cc1)C(=O)NCC(=O)O", "note": "[AG-80308, {[(2S)-2-{[(4-bromophenyl)carbamoyl]amino}-4-methylpentanoyl]amino}acetic acid]", "values": [
      {"measurement": "Efficacy in preclinical studies", "setting": "Preclinical studies", "value": "rapid efficacy similar to steroids without any impairment of wound healing"},
      {"measurement": "Safety and tolerability in preclinical studies", "setting": "Preclinical studies", "value": "wide margin of safety and tolerability"},
      {"measurement": "Safety", "setting": "[1]", "value": "proven safe"},
      {"measurement": "Effect of HPβCD on stability and solubility of AG-80308", "setting": "[2]", "value": "increasing solubility of AG-80308 and its degradant, preventing precipitation"},
      {"measurement": "7-item visual analog scale for dry eye symptoms", "setting": "[3]", "value": "clinically meaningful unit reductions"},
      {"measurement": "Ocular surface disease index scores", "setting": "[4]", "value": "clinically meaningful unit reductions"},
      {"measurement": "Corneal staining, unit improvement from baseline", "setting": "[5]; Day 43, LS Mean±SE", "value": "−2.1±0.57"},
      {"measurement": "Corneal staining, unit improvement from baseline", "setting": "[5]; Day 84, LS Mean±SE", "value": "−2.7±0.57"},
      {"measurement": "Corneal and conjunctival staining", "setting": "[5]; overall study summary", "value": "clinically meaningful unit reductions"}
    ]}
  ]
}
